Experimental data taken from PubChem BioAssay (NCI).
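Cultured in 96-well plates, cells were exposed to test compound for 48 hours across five concentrations. GI50 marks 50% less growth. TGI denotes the concentration required for complete inhibition of growth.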

How the values were obtained:
Experiment in all cases: NCI-60 cell line screen, 48 h
786-0 renal = tested on: 786-0 renal
A498 renal = tested on: A498 renal
A549 NSCLC = tested on: A549 NSCLC
ACHN renal = tested on: ACHN renal
BT-549 breast = tested on: BT-549 breast
CAKI-1 renal = tested on: CAKI-1 renal
CCRF-CEM leukemia = tested on: CCRF-CEM leukemia
COLO 205 colon = tested on: COLO 205 colon
DU-145 prostate = tested on: DU-145 prostate
EKVX NSCLC = tested on: EKVX NSCLC
HCC-2998 colon = tested on: HCC-2998 colon
HCT-116 colon = tested on: HCT-116 colon
HCT-15 colon = tested on: HCT-15 colon
HL-60(TB) leukemia = tested on: HL-60(TB) leukemia
HOP-62 NSCLC = tested on: HOP-62 NSCLC
HOP-92 NSCLC = tested on: HOP-92 NSCLC
HS 578T breast = tested on: HS 578T breast
HT29 colon = tested on: HT29 colon
IGROV1 ovarian = tested on: IGROV1 ovarian
K-562 leukemia = tested on: K-562 leukemia
KM12 colon = tested on: KM12 colon
LOX IMVI melanoma = tested on: LOX IMVI melanoma
M14 melanoma = tested on: M14 melanoma
MALME-3M melanoma = tested on: MALME-3M melanoma
MCF7 breast = tested on: MCF7 breast
MDA-MB-435 = tested on: MDA-MB-435
MDA-MB-468 breast = tested on: MDA-MB-468 breast
MOLT-4 leukemia = tested on: MOLT-4 leukemia
NCI-H226 lung = tested on: NCI-H226 lung
NCI-H23 lung = tested on: NCI-H23 lung
NCI-H460 lung = tested on: NCI-H460 lung
NCI-H522 lung = tested on: NCI-H522 lung
NCI/ADR-RES ovarian = tested on: NCI/ADR-RES ovarian
OVCAR-3 ovarian = tested on: OVCAR-3 ovarian
OVCAR-4 ovarian = tested on: OVCAR-4 ovarian
OVCAR-5 ovarian = tested on: OVCAR-5 ovarian
OVCAR-8 ovarian = tested on: OVCAR-8 ovarian
PC-3 prostate = tested on: PC-3 prostate
RPMI-8226 leukemia = tested on: RPMI-8226 leukemia
RXF 393 renal = tested on: RXF 393 renal
SF-268 CNS = tested on: SF-268 CNS
SF-295 CNS = tested on: SF-295 CNS
SF-539 CNS = tested on: SF-539 CNS
SK-MEL-28 melanoma = tested on: SK-MEL-28 melanoma
SK-MEL-5 melanoma = tested on: SK-MEL-5 melanoma
SK-OV-3 ovarian = tested on: SK-OV-3 ovarian
SN12C renal = tested on: SN12C renal
SNB-19 CNS = tested on: SNB-19 CNS
SR leukemia = tested on: SR leukemia
SW-620 colon = tested on: SW-620 colon
T-47D breast = tested on: T-47D breast
TK-10 renal = tested on: TK-10 renal
U251 CNS = tested on: U251 CNS
UACC-257 melanoma = tested on: UACC-257 melanoma
UACC-62 melanoma = tested on: UACC-62 melanoma

Work on `CC(C)C[C@H](NC(=O)CNC(=O)C[C@H]1O[C@@H]2OC3(C)CC[C@H]4[C@H](C)CC[C@@H]([C@H]1C)[C@@]24OO3)B(O)O` yielded a GI50 (786-0 renal) of 3320 nM, a TGI (786-0 renal) of over 65000 nM and a GI50 (A498 renal) of 5480 nM. It also gave a TGI (A498 renal) of over 65000 nM, a GI50 (A549 NSCLC) of 3030 nM and a TGI (A549 NSCLC) of over 65000 nM. It also gave a GI50 (ACHN renal) of 4750 nM, a TGI (ACHN renal) of over 65000 nM and a GI50 (BT-549 breast) of 261 nM. For the same molecule, the TGI (BT-549 breast) was 1220 nM, the GI50 (CAKI-1 renal) was 24300 nM and the TGI (CAKI-1 renal) was over 65000 nM. The GI50 (CCRF-CEM leukemia) was 251 nM, the TGI (CCRF-CEM leukemia) was 2740 nM and the GI50 (COLO 205 colon) was 2640 nM. It also gave a TGI (COLO 205 colon) of 13800 nM, a GI50 (DU-145 prostate) of 7320 nM and a TGI (DU-145 prostate) of over 65000 nM. The GI50 (EKVX NSCLC) was 5950 nM, the TGI (EKVX NSCLC) was over 65000 nM and the GI50 (HCC-2998 colon) was 1170 nM. The TGI (HCC-2998 colon) was 2210 nM, the GI50 (HCT-116 colon) was 437 nM and the TGI (HCT-116 colon) was 1750 nM. For the same molecule, the GI50 (HCT-15 colon) was 5520 nM, the TGI (HCT-15 colon) was 16500 nM and the GI50 (HL-60(TB) leukemia) was 210 nM. For the same molecule, the TGI (HL-60(TB) leukemia) was 4620 nM, the GI50 (HOP-62 NSCLC) was 3050 nM and the TGI (HOP-62 NSCLC) was 14700 nM. For the same molecule, the GI50 (HOP-92 NSCLC) was 1500 nM, the TGI (HOP-92 NSCLC) was 4900 nM and the GI50 (HS 578T breast) was 1910 nM. It also gave a TGI (HS 578T breast) of over 65000 nM, a GI50 (HT29 colon) of 983 nM and a TGI (HT29 colon) of 3460 nM. For the same molecule, the GI50 (IGROV1 ovarian) was 2690 nM, the TGI (IGROV1 ovarian) was 13800 nM and the GI50 (K-562 leukemia) was 1920 nM. For the same molecule, the TGI (K-562 leukemia) was over 65000 nM, the GI50 (KM12 colon) was 1670 nM and the TGI (KM12 colon) was 4450 nM. It also gave a GI50 (LOX IMVI melanoma) of 753 nM, a TGI (LOX IMVI melanoma) of 1680 nM and a GI50 (M14 melanoma) of 1240 nM. For the same molecule, the TGI (M14 melanoma) was 3460 nM, the GI50 (MALME-3M melanoma) was 719 nM and the TGI (MALME-3M melanoma) was 2790 nM. For the same molecule, the GI50 (MCF7 breast) was 349 nM, the TGI (MCF7 breast) was over 65000 nM and the GI50 (MDA-MB-435) was 275 nM. For the same molecule, the TGI (MDA-MB-435) was 1690 nM, the GI50 (MDA-MB-468 breast) was 341 nM and the TGI (MDA-MB-468 breast) was 1560 nM. The GI50 (MOLT-4 leukemia) was 267 nM, the TGI (MOLT-4 leukemia) was 5190 nM and the GI50 (NCI-H226 lung) was 455 nM. For the same molecule, the TGI (NCI-H226 lung) was 1500 nM, the GI50 (NCI-H23 lung) was 1680 nM and the TGI (NCI-H23 lung) was 8450 nM. It also gave a GI50 (NCI-H460 lung) of 3540 nM, a TGI (NCI-H460 lung) of 18900 nM and a GI50 (NCI-H522 lung) of 531 nM. For the same molecule, the TGI (NCI-H522 lung) was 1670 nM, the GI50 (NCI/ADR-RES ovarian) was 55300 nM and the TGI (NCI/ADR-RES ovarian) was over 65000 nM. The GI50 (OVCAR-3 ovarian) was 583 nM, the TGI (OVCAR-3 ovarian) was 3120 nM and the GI50 (OVCAR-4 ovarian) was 3040 nM. It also gave a TGI (OVCAR-4 ovarian) of over 65000 nM, a GI50 (OVCAR-5 ovarian) of 1680 nM and a TGI (OVCAR-5 ovarian) of 10300 nM. It also gave a GI50 (OVCAR-8 ovarian) of 1990 nM, a TGI (OVCAR-8 ovarian) of 8040 nM and a GI50 (PC-3 prostate) of 2520 nM. The TGI (PC-3 prostate) was 57800 nM, the GI50 (RPMI-8226 leukemia) was 184 nM and the TGI (RPMI-8226 leukemia) was 604 nM. It also gave a GI50 (RXF 393 renal) of 162 nM, a TGI (RXF 393 renal) of 556 nM and a GI50 (SF-268 CNS) of 2390 nM. The TGI (SF-268 CNS) was over 65000 nM, the GI50 (SF-295 CNS) was 2170 nM and the TGI (SF-295 CNS) was 9460 nM. It also gave a GI50 (SF-539 CNS) of 370 nM, a TGI (SF-539 CNS) of 1540 nM and a GI50 (SK-MEL-28 melanoma) of 716 nM. It also gave a TGI (SK-MEL-28 melanoma) of 3370 nM, a GI50 (SK-MEL-5 melanoma) of 1090 nM and a TGI (SK-MEL-5 melanoma) of 2270 nM. The GI50 (SK-OV-3 ovarian) was 4130 nM, the TGI (SK-OV-3 ovarian) was 38200 nM and the GI50 (SN12C renal) was 1920 nM. It also gave a TGI (SN12C renal) of 7920 nM, a GI50 (SNB-19 CNS) of 3440 nM and a TGI (SNB-19 CNS) of over 65000 nM. For the same molecule, the GI50 (SR leukemia) was 188 nM, the TGI (SR leukemia) was 805 nM and the GI50 (SW-620 colon) was 437 nM. For the same molecule, the TGI (SW-620 colon) was 8240 nM, the GI50 (T-47D breast) was 771 nM and the TGI (T-47D breast) was 2930 nM. The GI50 (TK-10 renal) was 2340 nM, the TGI (TK-10 renal) was 51400 nM and the GI50 (U251 CNS) was 2390 nM. It also gave a TGI (U251 CNS) of 14500 nM, a GI50 (UACC-257 melanoma) of 818 nM and a TGI (UACC-257 melanoma) of 2140 nM. The GI50 (UACC-62 melanoma) was 958 nM and the TGI (UACC-62 melanoma) was 2210 nM.
For `CNC(C)[C@H]1CCC2C3CC=C4C(=O)[C@@H](NC(=O)C=C(C)C)CC[C@]4(C)C3CC[C@@]21C` (stereo partly drawn), the GI50 (MDA-MB-468 breast) was 939 nM and the TGI (MDA-MB-468 breast) was 2910 nM.
In the case of `Nc1c(C(=O)Nc2ccccc2Cl)sc2nc3c(cc12)C(=O)CCC3`, the GI50 (MDA-MB-468 breast) is reported as 324 nM and the TGI (MDA-MB-468 breast) is reported as 5420 nM.
`C=CCn1c(SCC(=O)Nc2ccc(C(=O)/C=C/c3cc(OC)c(OC)c(OC)c3)cc2)nnc1-c1ccc(OC)cc1` gave a GI50 (MDA-MB-468 breast) of 654 nM and a TGI (MDA-MB-468 breast) of 2570 nM.
For `COc1ccc2c(c1)C(C)Cc1c(ncnc1-n1cnc3ccccc31)N2C` (stereo not drawn), the GI50 (MDA-MB-468 breast) was 293 nM and the TGI (MDA-MB-468 breast) was 10600 nM.
